Source: patent US9302999B2, “Substituted triazoles as herbicides” (E. I. DU PONT DE NEMOURS AND COMPANY, priority 2012, dated 2016)

Tests used:
Type in all cases: in vivo
[1] = system: nutsedge, yellow (yellow nutsedge, Cyperus esculentus); assay: Test C pre-/postemergence: nutsedge, yellow
Summary of the method: (§1)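 Preemergence on seeds in loam/sand, postemergence on 2–18 cm (1–4-leaf) plants in peat-based medium; compounds in non-phytotoxic solvent with surfactant. After 13–15 days in greenhouse, visual rating versus controls, 0 (no effect) to 100 (complete control).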

corn (Zea mays) [2] = assay: Test C pre-/postemergence: corn
Summary of the method: as §1

[3] = system: ragweed (common ragweed, Ambrosia elation); assay: Test C pre-/postemergence: ragweed
Summary of the method: as §1

[4] = system: chickweed (common chickweed, Stellaria media); assay: Test C postemergence: chickweed
Summary of the method: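 Crop and weed plants were grown in peat-vermiculite medium and treated postemergence at the 1- to 4-leaf stage (2-18 cm tall). After 13-15 days in a greenhouse, each species was rated visually against untreated controls on a 0-100 scale (0 no effect, 100 complete control).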

[5] = system: large crabgrass (Digitaria sanguinalis); assay: Test C pre-/postemergence: large crabgrass
Summary of the method: as §1

corn (Zea mays) [6] = assay: Test A pre-/postemergence: corn; conditions: for Corn plant response rating: Postemergence; for Plant response rating, Corn: Preemergence
Summary of the method: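 Each species received preemergence soil-directed spraying and, at the same time, postemergence treatment of seedlings 2–10 cm tall. Formulation: non-phytotoxic solvent mixture including surfactant. Response assessed visually about ten days on, relative to untreated controls, 0–100 scale.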

[7] = system: foxtail, giant (giant foxtail, Setaria faberii); assay: Test C pre-/postemergence: foxtail, giant
Summary of the method: as §1

wild oat (Avena fatua) = assay: Test C pre-/postemergence: wild oat
Summary of the method: as §1

[8] = system: velvetleaf (Abutilon theophrasti); assay: Test C pre-/postemergence: velvetleaf
Summary of the method: as §1

kochia (Kochia scoparia) = assay: Test C pre-/postemergence: kochia
Summary of the method: as §1

[9] = Postemergence, 31 g ai/ha, scale 0 to 100 (0 no effect, 100 complete control)
[10] = Postemergence, 62 g ai/ha, scale 0 to 100 (0 no effect, 100 complete control)
[11] = Postemergence, 125 g ai/ha, scale 0 to 100, 0 no effect, 100 complete control
[12] = Postemergence, 250 g ai/ha, scale 0 to 100
[13] = Preemergence, 31 g ai/ha, scale of 0 to 100, 0 is no effect, 100 is complete control
[14] = Preemergence, 62 g ai/ha, scale of 0 to 100, 0 is no effect, 100 is complete control
[15] = Preemergence, 125 g ai/ha, scale 0 to 100, 0 no effect, 100 complete control
[16] = Preemergence, 250 g ai/ha, scale 0 to 100, 0 no effect, 100 complete control
[17] = Preemergence, 62 g ai/ha, scale 0 to 100, 0 no effect, 100 complete control
[18] = 31 g ai/ha, scale 0 to 100 (0 no effect, 100 complete control)
[19] = 62 g ai/ha, scale 0 to 100 (0 no effect, 100 complete control)
[20] = 125 g ai/ha, scale 0 to 100, 0 no effect, 100 complete control
[21] = 125 g ai/ha, 0 to 100 scale, 0 is no effect, 100 is complete control
[22] = 500 g ai/ha, visual rating on 0 to 100 scale (0 no effect, 100 complete control), approximately ten days

Cc1nn(-c2ccc(C(F)(F)F)cc2)nc1Oc1ccnc(C(F)(F)F)c1 [Compound 120]
65: Plant response rating, Ragweed [3, 16] | Plant response rating, Velvetleaf [8, 12] | Plant response rating, Kochia (kochia (Kochia scoparia); [9])
10: Plant response rating, Corn (corn (Zea mays) [2]; [10]) | Plant response rating, Corn (corn (Zea mays) [2]; [11]) | Plant response rating, Corn (corn (Zea mays) [2]; [12]) | Plant response rating, Kochia (kochia (Kochia scoparia); [13])
50: Plant response rating, Corn (corn (Zea mays) [2]; [16]) | Corn plant response rating (corn (Zea mays) [6]; [22]) | Plant response rating, Foxtail, Giant [7, 11]
95: Plant response rating, Oat, Wild (wild oat (Avena fatua); [15]) | Plant response rating, Oat, Wild (wild oat (Avena fatua); [16]) | Plant response rating, Kochia (kochia (Kochia scoparia); [10])
20: Corn plant response rating (corn (Zea mays) [6]; [21]) | Plant response rating, Corn (corn (Zea mays) [6]; 125 g ai/ha, 0 to 100 scale where 0 is no effect and 100 is complete control) | Plant response rating, Velvetleaf [8, 9]
75: Plant response rating, Chickweed [4, 18]
25: Plant response rating, Corn (corn (Zea mays) [2]; [15]) | Plant response rating, Crabgrass, Large [5, 10] | Plant response rating, Crabgrass, Large [5, 11]
5: Plant response rating, Corn (corn (Zea mays) [2]; [9]) | Plant response rating, Corn (corn (Zea mays) [2]; [17]) | Plant response rating, Crabgrass, Large [5, 9] | Plant response rating, Foxtail, Giant [7, 9] | Plant response rating, Velvetleaf [8, 13]
98: Plant response rating, Foxtail, Giant [7, 13] | Plant response rating, Foxtail, Giant [7, 14] | Plant response rating, Foxtail, Giant [7, 15] | Plant response rating, Kochia (kochia (Kochia scoparia); [11]) | Plant response rating, Kochia (kochia (Kochia scoparia); [12])
60: Plant response rating, Ragweed [3, 9] | Plant response rating, Ragweed [3, 10] | Plant response rating, Oat, Wild (wild oat (Avena fatua); [10])
80: Plant response rating, Ragweed [3, 11] | Plant response rating, Oat, Wild (wild oat (Avena fatua); [11])
15: Plant response rating, Velvetleaf [8, 14]
55: Plant response rating, Foxtail, Giant [7, 12] | Plant response rating, Oat, Wild (wild oat (Avena fatua); [9]) | Plant response rating, Velvetleaf [8, 11]
85: Plant response rating, Ragweed [3, 12] | Plant response rating, Oat, Wild (wild oat (Avena fatua); [13])
45: Plant response rating, Ragweed [3, 14] | Plant response rating, Ragweed [3, 15] | Plant response rating, Crabgrass, Large [5, 12] | Plant response rating, Foxtail, Giant [7, 10] | Plant response rating, Velvetleaf [8, 10]
0: Plant response rating, Nutsedge, Yellow [1, 9] | Plant response rating, Nutsedge, Yellow [1, 10] | Plant response rating, Nutsedge, Yellow [1, 11] | Plant response rating, Nutsedge, Yellow [1, 12] | Plant response rating, Nutsedge, Yellow [1, 13] | Plant response rating, Nutsedge, Yellow [1, 14] | Plant response rating, Nutsedge, Yellow [1, 15] | Plant response rating, Nutsedge, Yellow [1, 16] | Plant response rating, Corn (corn (Zea mays) [2]; [13]) | Plant response rating, Ragweed [3, 13]
35: Plant response rating, Velvetleaf [8, 15]
30: Plant response rating, Corn (corn (Zea mays) [6]; 500 g ai/ha, 0 to 100 scale (0 no effect, 100 complete control))
100: Plant response rating, Chickweed [4, 19] | Plant response rating, Chickweed [4, 20] | Plant response rating, Chickweed ([4]; 250 g ai/ha, scale 0 to 100) | Plant response rating, Crabgrass, Large [5, 13] | Plant response rating, Crabgrass, Large [5, 14] | Plant response rating, Crabgrass, Large [5, 15] | Plant response rating, Crabgrass, Large [5, 16] | Plant response rating, Foxtail, Giant [7, 16] | Plant response rating, Velvetleaf [8, 16] | Plant response rating, Kochia (kochia (Kochia scoparia); [15]) | Plant response rating, Kochia (kochia (Kochia scoparia); [16])
90: Plant response rating, Oat, Wild (wild oat (Avena fatua); [12]) | Plant response rating, Oat, Wild (wild oat (Avena fatua); [14]) | Plant response rating, Kochia (kochia (Kochia scoparia); [14])

Cc1nn(-c2ccc(C(F)(F)F)cn2)nc1Oc1ccnc(C(F)(F)F)c1 [Compound 23]
40: Plant response rating, Corn (corn (Zea mays) [6]; 500 g ai/ha, 0 to 100 scale, 0 is no effect, 100 is complete control) | Plant response rating, Velvetleaf [8, 11]
15: Plant response rating, Corn (corn (Zea mays) [2]; [10]) | Plant response rating, Crabgrass, Large [5, 10] | Plant response rating, Foxtail, Giant [7, 9] | Plant response rating, Foxtail, Giant [7, 10] | Plant response rating, Foxtail, Giant [7, 11] | Plant response rating, Velvetleaf [8, 9]
95: Plant response rating, Kochia (kochia (Kochia scoparia); [13]) | Plant response rating, Kochia (kochia (Kochia scoparia); [14]) | Plant response rating, Kochia (kochia (Kochia scoparia); [15])
20: Plant response rating, Corn (corn (Zea mays) [2]; [11]) | Plant response rating, Ragweed [3, 11] | Plant response rating, Ragweed [3, 12] | Plant response rating, Ragweed [3, 14] | Plant response rating, Ragweed [3, 15]
65: Plant response rating, Kochia (kochia (Kochia scoparia); [9])
70: Plant response rating, Corn (corn (Zea mays) [2]; [15]) | Plant response rating, Chickweed ([4]; 250 g ai/ha, scale 0 to 100)
30: Plant response rating, Corn (corn (Zea mays) [2]; [12]) | Plant response rating, Corn (corn (Zea mays) [2]; [17]) | Plant response rating, Chickweed [4, 18] | Corn plant response rating (corn (Zea mays) [6]; [21])
75: Plant response rating, Kochia (kochia (Kochia scoparia); [10])
100: Plant response rating, Crabgrass, Large [5, 13] | Plant response rating, Crabgrass, Large [5, 14] | Plant response rating, Crabgrass, Large [5, 15] | Plant response rating, Crabgrass, Large [5, 16] | Plant response rating, Foxtail, Giant [7, 14] | Plant response rating, Foxtail, Giant [7, 15] | Plant response rating, Foxtail, Giant [7, 16] | Plant response rating, Oat, Wild (wild oat (Avena fatua); [16]) | Plant response rating, Velvetleaf [8, 16] | Plant response rating, Kochia (kochia (Kochia scoparia); [16])
50: Corn plant response rating (corn (Zea mays) [6]; [22]) | Plant response rating, Velvetleaf [8, 12]
80: Plant response rating, Oat, Wild (wild oat (Avena fatua); [14]) | Plant response rating, Oat, Wild (wild oat (Avena fatua); [15]) | Plant response rating, Velvetleaf [8, 15] | Plant response rating, Kochia (kochia (Kochia scoparia); [11])
35: Plant response rating, Nutsedge, Yellow [1, 15] | Plant response rating, Crabgrass, Large [5, 12] | Plant response rating, Oat, Wild (wild oat (Avena fatua); [11]) | Plant response rating, Oat, Wild (wild oat (Avena fatua); [12])
45: Plant response rating, Oat, Wild (wild oat (Avena fatua); [13])
60: Plant response rating, Ragweed [3, 16] | Plant response rating, Chickweed [4, 20]
5: Plant response rating, Nutsedge, Yellow [1, 13] | Plant response rating, Corn (corn (Zea mays) [2]; [13]) | Plant response rating, Ragweed [3, 13] | Plant response rating, Oat, Wild (wild oat (Avena fatua); [9]) | Plant response rating, Velvetleaf [8, 13]
55: Plant response rating, Nutsedge, Yellow [1, 16] | Plant response rating, Chickweed [4, 19]
25: Plant response rating, Crabgrass, Large [5, 11] | Plant response rating, Foxtail, Giant [7, 12] | Plant response rating, Velvetleaf [8, 10] | Plant response rating, Velvetleaf [8, 14]
10: Plant response rating, Nutsedge, Yellow [1, 9] | Plant response rating, Nutsedge, Yellow [1, 10] | Plant response rating, Nutsedge, Yellow [1, 11] | Plant response rating, Nutsedge, Yellow [1, 12] | Plant response rating, Nutsedge, Yellow [1, 14] | Plant response rating, Corn (corn (Zea mays) [2]; [9]) | Plant response rating, Ragweed [3, 9] | Plant response rating, Ragweed [3, 10] | Plant response rating, Crabgrass, Large [5, 9] | Plant response rating, Corn (corn (Zea mays) [6]; 125 g ai/ha, 0 to 100 scale (0 no effect, 100 complete control)) | Plant response rating, Oat, Wild (wild oat (Avena fatua); [10])
98: Plant response rating, Foxtail, Giant [7, 13]
85: Plant response rating, Corn (corn (Zea mays) [2]; [16]) | Plant response rating, Kochia (kochia (Kochia scoparia); [12])
